Experiments:
purified Hsp90α = purified Hsp90α (Homo sapiens, UniProt P07900); test: In vitro competitive binding with 3H-17AAG; conditions: CP9 200 μM pre-incubation; p<0.05
Procedure: (§1) FIG. 5C is a graph illustrating the competitive in vitro binding of CP9 with ^3H-17AAG to Hsp90(α/β). Purified Hsp90(α/β) was pre-incubated with CP9 (200 μM) or cold 17-AAG (50 μM) prior to incubation with ^3H-17AAG. The reaction complexes were then eluted through a desalting column to remove any unbound ^3H-17AAG prior to scintillation counting for the amount of ^3H-17AAG bound to Hsp90(α/β). Columns incubated with ^3H-17AAG alone served as negative controls. Results are expressed as means of triplicates±S.E.M. *, p<5×10^−6 vs. carrier control-treated cells.
(§2) To confirm the direct binding of CP9 to Hsp90(α/β), an in vitro competitive binding assay using purified Hsp90α and Hsp90β was performed using radiolabeled Hsp90 inhibitor ^3H-17AAG. Hsp90 proteins were pre-bound with CP9 or cold 17-AAG as a control prior to incubation with ^3H-17AAG. Unbound ^3H-17AAG was removed and the amount of ^3H-17AAG bound to the Hsp90 proteins was determined. […] To confirm cellular Hsp90 as the target of CP9, uptake studies in intact HT29 cells were performed by monitoring the competitive binding of ^3H-17AAG. […]
(§3) To verify the binding of CP9 to Hsp90α and Hsp90β in vitro, a displacement assay using ^3H-17AAG was performed. […] The amount of ^3H-17AAG that remained bound to Hsp90α or Hsp9013 was determined by scintillation counting.

purified Hsp90β = purified Hsp90β (Homo sapiens, UniProt P08238); test: In vitro competitive binding with 3H-17AAG; conditions: CP9 200 μM pre-incubation
Chain of purified Hsp90β (P08238 whole entry): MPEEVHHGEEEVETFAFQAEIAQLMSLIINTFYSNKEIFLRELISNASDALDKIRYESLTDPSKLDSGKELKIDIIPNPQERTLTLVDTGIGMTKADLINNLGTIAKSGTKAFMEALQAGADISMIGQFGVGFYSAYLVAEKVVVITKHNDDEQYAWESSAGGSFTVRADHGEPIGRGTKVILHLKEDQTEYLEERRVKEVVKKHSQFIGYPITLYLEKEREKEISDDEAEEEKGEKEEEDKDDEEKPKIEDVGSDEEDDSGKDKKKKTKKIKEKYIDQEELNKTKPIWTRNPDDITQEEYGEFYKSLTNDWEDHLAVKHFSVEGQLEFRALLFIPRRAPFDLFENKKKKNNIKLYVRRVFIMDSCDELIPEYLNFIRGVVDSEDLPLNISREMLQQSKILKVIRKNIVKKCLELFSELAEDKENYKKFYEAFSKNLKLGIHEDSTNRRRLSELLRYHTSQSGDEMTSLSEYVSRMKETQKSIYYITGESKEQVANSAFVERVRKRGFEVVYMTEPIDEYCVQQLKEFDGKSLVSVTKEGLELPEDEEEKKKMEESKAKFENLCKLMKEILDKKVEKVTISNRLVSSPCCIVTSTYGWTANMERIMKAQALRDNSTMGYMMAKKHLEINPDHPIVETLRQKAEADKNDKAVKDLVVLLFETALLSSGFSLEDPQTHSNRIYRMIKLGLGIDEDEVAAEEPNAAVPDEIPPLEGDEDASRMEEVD
Procedure: as §1, §2, §3

[1] = system: 1975 lung cancer, 2008 ovarian cancer and HT29 colon cancer cells; test: 3H-FDG cell uptake (glucose metabolism); type: cell-based; conditions: 24 h post treatment
Procedure: FIG. 6B is a graph illustrating the effect of CP9 on glucose metabolism determined in 1975 lung cancer, 2008 ovarian cancer and HT29 colon cancer cells by ^3H-FDG cell uptake studies 24 h post treatment. Normal MEFs were used as a control. Results were expressed as mean counts/μg protein/initial dose±S.E.M. *, p<0.05 vs. carrier control treated cells.
Inhibition of glucose metabolism by CP9 in cell culture was monitored by cell uptake studies with ^3H-fluoro-deoxyglucose (^3H-FDG) as described in Dandekar et al. ((2007) J. Nucl. Med. 48: 602-607) as shown in FIG. 6B. PU-H71 was used as a positive control.
To determine the downstream effects of lead compounds on glucose metabolism, 1.5×10^5 293T, 1975 and 2008 and MEFs cells plated in 24-well plate for 24 h, prior to treatment with different concentrations of CP9 for 24 or 48 h and subsequent incubation with 1 μCi of ^3H-FDG in 500 μl of medium for 1 h at 37° C. Cells treated with 2.5 μM of PU-H71 served as a positive control. The total counts in each sample were normalized to that of the dose added to each well and to the amount of protein, and expressed as mean counts/dose/μg protein±S.E.M. Likewise, the effect of CP9 on cell proliferation was determined using 1 μCi of ^3H-FLT per well after 2 h of incubation at 37° C.

[2] = system: phosphorylated/total Akt and Raf-1; test: Western blotting of Hsp90 client proteins in multiple cancer cell lines; type: cell-based, human; conditions: BT474/MCF-7/SK-Br3, 1975, HT1080, 4-4/HUH7, PC3, 2008, U87MG, HT29
Excerpt: FIGS. 10A and 10B show the effect of CP9 on the expression of Raf-1, phosphorylated Akt, and total Akt in 1975 lung cancer, BT474 breast cancer and HuH-7 liver cancer as determined by western blotting. α-Tubulin was used as the loading control.
(§4) CP9 had no effect on the expression of the Hsp90 client proteins in normal mouse embryonic fibroblasts (MEF) cells (FIG. 10C).

[3] = system: endogenous Hsp90(α/β)/p23 interactions; test: Co-immunoprecipitation of Hsp90(α/β)/p23; type: cell-based, human; conditions: 5 μM, 24 h, 293T cells
Procedure: FIG. 5B is a digital image of a western blot analysis illustrating the effects of compounds CP1, CP9 and CP18 on disruption of Hsp90α/p23 and Hsp90β/p23 as determined by co-immunoprecipitation using antibodies against p23 and probing with Hsp90α- and Hsp90β-specific antibodies. The blot was probed with antibodies against p23 to ensure similar immunoprecipitation efficiency. Cells treated with 2 μM of PU-H71 served as a positive control.
Cells treated with PU-H71 (2 μM) served as a positive control.
Cells treated with 2 μM of PU-H71 served as a positive control. Western blotting of Hsp70, phosphorylated and total Akt and co-immunoprecipitation of Hsp90(α/β)/p23 interactions was performed as described Inglese et al., (2006) Proc. Nat. Acad. Sci. U.S.A. 103: 11473-11478, incorporated herein by reference in its entirety. The expression of Raf-1 was determined using rabbit polyclonal antibodies against Raf-1 (0.5 μg/ml, Abcam).

Hsp90 client proteins = test: Western blotting of Hsp90 client proteins in normal MEF cells; type: cell-based; conditions: normal mouse embryonic fibroblasts
Excerpt: as §4

reduction of binding of 3H-17AAG to purified Hsp90α (purified Hsp90α): about 50% | binding of 3H-17AAG to Hsp90β (purified Hsp90β): did not significantly affect
Structure (SMILES): Cc1cc(NC(=O)CSc2nc(-c3cccs3)cc(C(F)(F)F)n2)no1 [CP9, N-(5-methylisoxazol-3-yl)-2-(4-(thiophen-2-yl)-6-(trifluoromethyl)pyrimidin-2-ylthio)acetamide]
3H-FDG uptake in the cancer cells [1]: decreased | degradation of phosphorylated/total Akt and Raf-1 [2]: various levels of degradation | disruption of endogenous Hsp90(α/β)/p23 interactions by co-immunoprecipitation [3]: disruption of endogenous Hsp90(α/β)/p23 interactions | expression of Hsp90 client proteins (Hsp90 client proteins): no effect
